Drawing on US9738660B2, “Selective inhibitors for protein kinases and pharmaceutical composition and use thereof” (National Chiao Tung University, priority 2014, dated 2017), this text covers remaining activity for nine compounds.

Read-outs that look alike come from different tables or passages of the source.

Test in all cases: Kinase Profiler, residual kinase activity
Holding throughout (format): biochemical
Common to all, as to details: read-out: percentage of the remaining kinase activity

One assay addresses DAPK1 (Homo sapiens, UniProt P53355). An excerpt:
(§1) Kinase Profiler services provided by […]. (http://www.reactionbiology.com) were used to analyze the data of the 9 type-S protein kinase inhibitors against the 40 types of protein kinases.

The target of a further assay is T1, IRAK4 (Homo sapiens, UniProt Q9NWZ3).
T1 sequence (Q9NWZ3 1-460): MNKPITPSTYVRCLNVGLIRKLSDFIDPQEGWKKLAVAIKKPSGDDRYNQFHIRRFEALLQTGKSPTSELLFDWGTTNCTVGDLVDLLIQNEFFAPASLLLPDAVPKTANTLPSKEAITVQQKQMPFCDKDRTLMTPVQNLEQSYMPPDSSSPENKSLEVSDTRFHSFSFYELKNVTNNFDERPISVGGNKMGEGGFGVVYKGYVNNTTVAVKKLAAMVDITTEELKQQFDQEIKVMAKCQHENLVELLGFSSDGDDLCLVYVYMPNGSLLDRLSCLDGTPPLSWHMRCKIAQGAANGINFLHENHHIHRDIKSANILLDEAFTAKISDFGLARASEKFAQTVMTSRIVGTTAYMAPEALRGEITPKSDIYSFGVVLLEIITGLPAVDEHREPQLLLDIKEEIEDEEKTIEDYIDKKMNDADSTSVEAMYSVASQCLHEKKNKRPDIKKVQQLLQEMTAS
From the text: as §1

A further assay has as its target JAK2 (Homo sapiens, UniProt O60674).
From the text: as §1

In the next assay the target is T2, MAP2K1 (Homo sapiens, UniProt Q02750).
T2 construct: purchased Research Biology Corp. (http://www.reactionbiology.com)
From the text: as §1

The target of the next assay is T3, MERTK (Homo sapiens, UniProt Q12866).
T3 sequence (Q12866 21-999): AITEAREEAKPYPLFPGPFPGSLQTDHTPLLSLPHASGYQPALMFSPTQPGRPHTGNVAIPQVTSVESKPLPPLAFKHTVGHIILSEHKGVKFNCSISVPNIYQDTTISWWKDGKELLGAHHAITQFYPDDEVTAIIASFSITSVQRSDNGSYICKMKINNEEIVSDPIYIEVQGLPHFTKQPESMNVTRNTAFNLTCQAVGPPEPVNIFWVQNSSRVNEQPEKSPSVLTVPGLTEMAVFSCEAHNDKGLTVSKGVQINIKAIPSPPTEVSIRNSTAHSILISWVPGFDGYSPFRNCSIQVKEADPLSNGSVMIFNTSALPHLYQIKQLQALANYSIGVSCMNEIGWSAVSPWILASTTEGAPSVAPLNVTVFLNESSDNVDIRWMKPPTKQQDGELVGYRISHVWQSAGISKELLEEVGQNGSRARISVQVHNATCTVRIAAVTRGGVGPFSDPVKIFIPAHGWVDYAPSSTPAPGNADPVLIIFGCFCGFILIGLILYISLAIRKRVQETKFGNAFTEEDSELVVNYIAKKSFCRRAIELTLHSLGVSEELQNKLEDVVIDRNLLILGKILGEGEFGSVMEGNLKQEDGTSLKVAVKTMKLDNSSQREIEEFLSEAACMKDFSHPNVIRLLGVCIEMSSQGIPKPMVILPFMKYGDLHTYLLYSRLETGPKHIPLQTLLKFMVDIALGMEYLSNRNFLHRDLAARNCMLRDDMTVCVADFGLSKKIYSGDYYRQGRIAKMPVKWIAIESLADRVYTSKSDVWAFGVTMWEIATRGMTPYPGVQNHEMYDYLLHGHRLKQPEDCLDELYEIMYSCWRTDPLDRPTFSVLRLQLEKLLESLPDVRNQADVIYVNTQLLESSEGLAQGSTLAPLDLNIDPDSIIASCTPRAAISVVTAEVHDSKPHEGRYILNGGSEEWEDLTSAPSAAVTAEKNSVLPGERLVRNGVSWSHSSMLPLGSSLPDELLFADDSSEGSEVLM
From the text: as §1

Another assay addresses T4, PRKACA (Homo sapiens, UniProt P17612).
T4 construct: purchased Research Biology Corp. (http://www.reactionbiology.com)
From the text: as §1

Another assay has as its target RET (Homo sapiens, UniProt P07949).
From the text: as §1

Another assay has as its target T5, SRPK1 (Homo sapiens, UniProt Q96SB4).
T5 construct: purchased Research Biology Corp. (http://www.reactionbiology.com)
From the text: as §1

In another assay the target is T6, STK4 (Homo sapiens, UniProt Q13043).
T6 construct: purchased Research Biology Corp. (http://www.reactionbiology.com)
T6 sequence (Q13043 1-487): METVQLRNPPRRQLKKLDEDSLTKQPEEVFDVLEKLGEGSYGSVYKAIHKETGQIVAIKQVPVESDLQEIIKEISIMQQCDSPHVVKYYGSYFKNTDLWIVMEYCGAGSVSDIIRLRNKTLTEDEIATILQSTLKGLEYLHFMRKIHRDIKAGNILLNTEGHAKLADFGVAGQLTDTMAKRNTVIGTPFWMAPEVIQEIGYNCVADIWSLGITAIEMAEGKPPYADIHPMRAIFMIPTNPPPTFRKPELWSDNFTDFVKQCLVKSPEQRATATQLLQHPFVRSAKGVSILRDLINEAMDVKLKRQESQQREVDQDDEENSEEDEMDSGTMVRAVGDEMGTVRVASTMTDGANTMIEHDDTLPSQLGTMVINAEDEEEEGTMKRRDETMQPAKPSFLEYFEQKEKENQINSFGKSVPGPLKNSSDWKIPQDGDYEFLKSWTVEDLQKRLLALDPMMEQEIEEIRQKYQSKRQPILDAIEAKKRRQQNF
From the text: as §1

T5 sequence (Q96SB4 whole entry): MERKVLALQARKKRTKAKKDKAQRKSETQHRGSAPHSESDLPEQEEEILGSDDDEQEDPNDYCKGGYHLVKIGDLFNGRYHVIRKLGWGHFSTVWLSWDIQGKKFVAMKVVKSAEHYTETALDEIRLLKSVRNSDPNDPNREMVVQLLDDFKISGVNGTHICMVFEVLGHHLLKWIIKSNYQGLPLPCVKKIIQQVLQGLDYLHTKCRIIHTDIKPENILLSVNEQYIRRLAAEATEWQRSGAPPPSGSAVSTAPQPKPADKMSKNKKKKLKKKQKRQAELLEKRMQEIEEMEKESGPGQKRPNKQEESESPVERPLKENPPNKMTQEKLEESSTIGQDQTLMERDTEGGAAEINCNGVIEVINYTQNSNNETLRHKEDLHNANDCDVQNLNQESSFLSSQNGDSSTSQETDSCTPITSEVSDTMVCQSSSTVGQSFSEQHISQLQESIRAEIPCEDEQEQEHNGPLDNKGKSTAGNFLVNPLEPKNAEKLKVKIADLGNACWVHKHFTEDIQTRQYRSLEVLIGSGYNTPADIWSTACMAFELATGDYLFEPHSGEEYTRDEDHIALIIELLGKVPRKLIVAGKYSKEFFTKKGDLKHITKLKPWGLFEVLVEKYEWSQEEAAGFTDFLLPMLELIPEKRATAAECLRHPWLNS
DAPK1, sequence (P53355 whole entry): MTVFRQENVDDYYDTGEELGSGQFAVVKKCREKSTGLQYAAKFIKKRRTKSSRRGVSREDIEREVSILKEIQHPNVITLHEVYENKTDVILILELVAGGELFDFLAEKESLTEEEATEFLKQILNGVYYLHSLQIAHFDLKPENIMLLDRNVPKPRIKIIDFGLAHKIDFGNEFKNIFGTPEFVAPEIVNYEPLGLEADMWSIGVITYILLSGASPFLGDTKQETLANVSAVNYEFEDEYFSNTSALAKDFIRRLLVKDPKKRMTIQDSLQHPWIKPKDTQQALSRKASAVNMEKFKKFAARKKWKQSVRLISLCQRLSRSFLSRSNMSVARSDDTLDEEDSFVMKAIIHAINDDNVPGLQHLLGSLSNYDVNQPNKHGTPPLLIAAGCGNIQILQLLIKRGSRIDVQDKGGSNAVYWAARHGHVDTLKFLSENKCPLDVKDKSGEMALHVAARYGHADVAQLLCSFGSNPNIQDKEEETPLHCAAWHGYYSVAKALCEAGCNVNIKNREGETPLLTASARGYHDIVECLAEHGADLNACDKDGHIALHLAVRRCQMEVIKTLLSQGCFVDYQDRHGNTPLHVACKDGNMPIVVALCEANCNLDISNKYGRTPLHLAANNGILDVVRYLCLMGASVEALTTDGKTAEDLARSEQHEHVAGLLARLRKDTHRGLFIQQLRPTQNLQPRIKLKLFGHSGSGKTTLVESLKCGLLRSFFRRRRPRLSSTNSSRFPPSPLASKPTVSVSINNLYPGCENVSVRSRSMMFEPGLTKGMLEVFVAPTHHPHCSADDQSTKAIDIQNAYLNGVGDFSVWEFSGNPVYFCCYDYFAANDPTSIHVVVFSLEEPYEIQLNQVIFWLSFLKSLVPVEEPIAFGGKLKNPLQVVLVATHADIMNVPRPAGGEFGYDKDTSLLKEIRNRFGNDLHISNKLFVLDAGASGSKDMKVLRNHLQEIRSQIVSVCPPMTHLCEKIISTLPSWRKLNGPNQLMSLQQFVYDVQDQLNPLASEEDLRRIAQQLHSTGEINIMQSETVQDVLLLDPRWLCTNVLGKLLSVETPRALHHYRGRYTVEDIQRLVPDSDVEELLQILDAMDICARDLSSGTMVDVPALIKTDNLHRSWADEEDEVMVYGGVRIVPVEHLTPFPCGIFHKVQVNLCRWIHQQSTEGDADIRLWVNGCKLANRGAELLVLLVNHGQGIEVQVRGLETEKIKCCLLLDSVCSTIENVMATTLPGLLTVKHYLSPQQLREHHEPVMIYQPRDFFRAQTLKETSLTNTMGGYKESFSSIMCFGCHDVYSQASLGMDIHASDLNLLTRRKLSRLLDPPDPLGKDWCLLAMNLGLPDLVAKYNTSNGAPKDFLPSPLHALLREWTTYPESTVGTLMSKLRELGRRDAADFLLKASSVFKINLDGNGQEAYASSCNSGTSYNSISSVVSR
T2 sequence (Q02750 whole entry): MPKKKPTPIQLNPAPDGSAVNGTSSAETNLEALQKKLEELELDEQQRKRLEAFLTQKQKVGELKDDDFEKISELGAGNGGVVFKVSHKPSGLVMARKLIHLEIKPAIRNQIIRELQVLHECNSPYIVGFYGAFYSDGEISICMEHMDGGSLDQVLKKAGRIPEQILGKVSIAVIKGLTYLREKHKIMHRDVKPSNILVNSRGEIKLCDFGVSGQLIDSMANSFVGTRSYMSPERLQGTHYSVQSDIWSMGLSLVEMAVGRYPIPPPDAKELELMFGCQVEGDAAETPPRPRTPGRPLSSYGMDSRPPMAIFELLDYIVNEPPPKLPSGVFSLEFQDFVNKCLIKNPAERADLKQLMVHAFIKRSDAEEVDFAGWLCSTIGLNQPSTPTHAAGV
JAK2, sequence (O60674 whole entry): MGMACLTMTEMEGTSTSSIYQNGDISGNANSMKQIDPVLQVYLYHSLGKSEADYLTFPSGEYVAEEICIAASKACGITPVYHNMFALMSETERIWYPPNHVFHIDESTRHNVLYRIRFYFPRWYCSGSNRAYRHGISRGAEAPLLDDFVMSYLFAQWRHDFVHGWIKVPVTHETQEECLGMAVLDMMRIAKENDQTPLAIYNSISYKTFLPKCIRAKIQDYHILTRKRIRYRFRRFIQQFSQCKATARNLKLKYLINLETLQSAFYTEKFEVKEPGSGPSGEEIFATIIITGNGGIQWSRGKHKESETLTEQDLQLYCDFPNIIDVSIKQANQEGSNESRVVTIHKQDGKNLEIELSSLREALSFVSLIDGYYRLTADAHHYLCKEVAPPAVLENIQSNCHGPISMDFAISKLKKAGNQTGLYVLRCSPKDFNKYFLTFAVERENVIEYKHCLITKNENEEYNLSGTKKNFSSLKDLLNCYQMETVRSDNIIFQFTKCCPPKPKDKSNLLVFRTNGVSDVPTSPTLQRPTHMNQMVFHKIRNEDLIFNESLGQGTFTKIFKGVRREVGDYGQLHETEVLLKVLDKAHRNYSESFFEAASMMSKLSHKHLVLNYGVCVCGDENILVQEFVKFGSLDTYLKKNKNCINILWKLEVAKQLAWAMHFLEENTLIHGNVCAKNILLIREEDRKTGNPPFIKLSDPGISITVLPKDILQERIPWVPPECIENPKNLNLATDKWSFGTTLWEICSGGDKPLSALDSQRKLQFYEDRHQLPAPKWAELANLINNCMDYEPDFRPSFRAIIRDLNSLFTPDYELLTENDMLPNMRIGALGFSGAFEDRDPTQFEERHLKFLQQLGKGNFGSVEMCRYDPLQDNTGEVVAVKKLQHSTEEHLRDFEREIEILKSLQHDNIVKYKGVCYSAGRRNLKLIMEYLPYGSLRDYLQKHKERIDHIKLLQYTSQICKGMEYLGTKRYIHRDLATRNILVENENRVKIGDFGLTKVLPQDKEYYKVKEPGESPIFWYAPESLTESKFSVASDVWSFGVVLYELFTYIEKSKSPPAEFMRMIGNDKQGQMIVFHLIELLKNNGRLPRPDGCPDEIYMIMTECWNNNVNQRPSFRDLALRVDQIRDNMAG
RET, sequence (P07949 29-1114): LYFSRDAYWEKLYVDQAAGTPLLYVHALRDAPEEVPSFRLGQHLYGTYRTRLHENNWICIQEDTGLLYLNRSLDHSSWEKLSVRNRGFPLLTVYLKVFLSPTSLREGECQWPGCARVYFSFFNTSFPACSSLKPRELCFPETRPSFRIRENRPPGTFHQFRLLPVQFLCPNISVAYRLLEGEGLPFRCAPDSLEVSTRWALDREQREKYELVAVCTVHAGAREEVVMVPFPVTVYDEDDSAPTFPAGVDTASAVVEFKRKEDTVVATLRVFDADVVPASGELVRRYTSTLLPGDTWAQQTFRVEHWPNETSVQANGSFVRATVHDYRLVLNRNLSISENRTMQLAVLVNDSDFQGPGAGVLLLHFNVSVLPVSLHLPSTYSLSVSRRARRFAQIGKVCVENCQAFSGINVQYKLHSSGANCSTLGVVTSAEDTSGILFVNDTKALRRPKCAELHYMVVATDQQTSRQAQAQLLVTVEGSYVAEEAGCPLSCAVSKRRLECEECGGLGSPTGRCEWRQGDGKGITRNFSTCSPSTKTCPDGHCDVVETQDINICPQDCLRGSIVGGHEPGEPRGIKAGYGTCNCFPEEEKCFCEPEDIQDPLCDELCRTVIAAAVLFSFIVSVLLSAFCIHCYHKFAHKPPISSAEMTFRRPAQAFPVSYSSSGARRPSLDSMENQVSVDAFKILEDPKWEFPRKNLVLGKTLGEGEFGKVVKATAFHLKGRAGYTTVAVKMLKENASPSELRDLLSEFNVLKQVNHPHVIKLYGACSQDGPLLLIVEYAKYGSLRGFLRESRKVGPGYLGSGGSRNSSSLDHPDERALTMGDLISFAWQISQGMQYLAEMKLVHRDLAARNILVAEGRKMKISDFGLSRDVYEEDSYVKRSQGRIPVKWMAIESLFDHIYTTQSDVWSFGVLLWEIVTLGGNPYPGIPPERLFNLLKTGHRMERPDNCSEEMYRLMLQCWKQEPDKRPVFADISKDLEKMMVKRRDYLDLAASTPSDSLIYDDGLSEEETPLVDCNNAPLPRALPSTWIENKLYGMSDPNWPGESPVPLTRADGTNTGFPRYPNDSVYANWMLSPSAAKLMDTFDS

`COC1C(N(C)C(=O)C(N)Cc2c[nH]cn2)CC2OC1(C)n1c3ccccc3c3c4c(c5c6ccccc6n2c5c31)C(=O)NC4` (stereo not shown) [Compound 1]: the remaining activity at 0.5 µM on DAPK1 (DAPK1, inhibitor at 500 nM) turned out to be 26%; at IRAK4 (IRAK4, inhibitor at 500 nM), 33.4%; at JAK2 (JAK2, inhibitor at 500 nM) it was 4.4%; at MAP2K1 (MAP2K1, inhibitor at 500 nM), 79.8%; on MERTK (MERTK, inhibitor at 500 nM), 26.7%; at PRKACA (PRKACA, inhibitor at 500 nM), 13.9%. Also, the remaining activity at 0.5 µM at RET (RET, inhibitor at 500 nM) was found to be 6%; on SRPK1 (SRPK1, inhibitor at 500 nM), 24.4%; on STK4 (STK4, inhibitor at 500 nM), 1.8%.

Regarding `COC1C(N(C)C(=O)C(N)Cc2cn(C(=O)OC(C)(C)C)c3ccccc23)CC2OC1(C)n1c3ccccc3c3c4c(c5c6ccccc6n2c5c31)C(=O)NC4` (stereo not shown) [Compound 2], the remaining activity at 0.5 µM at DAPK1 (DAPK1, inhibitor at 500 nM) amounted to 107%; on IRAK4 (IRAK4, inhibitor at 500 nM), 101%; on JAK2 (JAK2, inhibitor at 500 nM), 70%; on MAP2K1 (MAP2K1, inhibitor at 500 nM), 105%; on MERTK (MERTK, inhibitor at 500 nM), 96.8%; on PRKACA (PRKACA, inhibitor at 500 nM), 81.1%. The remaining activity at 0.5 µM was found to be 101% at RET (RET, inhibitor at 500 nM); 95.7% on SRPK1 (SRPK1, inhibitor at 500 nM); 72.8% at STK4 (STK4, inhibitor at 500 nM).

On to `COC1C(N(C)C(=O)C(N)Cc2ccc(OC(C)(C)C)cc2)CC2OC1(C)n1c3ccccc3c3c4c(c5c6ccccc6n2c5c31)C(=O)NC4` (stereo not shown) [Compound 4], for which the remaining activity at 0.5 µM on DAPK1 (DAPK1, inhibitor at 500 nM) is 96.4%; on IRAK4 (IRAK4, inhibitor at 500 nM), 87.4%; on JAK2 (JAK2, inhibitor at 500 nM), 36.4%; at MAP2K1 (MAP2K1, inhibitor at 500 nM) it was 110%; at MERTK (MERTK, inhibitor at 500 nM), 88.1%; on PRKACA (PRKACA, inhibitor at 500 nM), 38.3%. Moreover, the remaining activity at 0.5 µM at RET (RET, inhibitor at 500 nM) came out at 63%; at SRPK1 (SRPK1, inhibitor at 500 nM) it was 85%; at STK4 (STK4, inhibitor at 500 nM) it was 12%.

Turning to `COC1C(N(C)C(=O)C(N)Cc2ccc(O)cc2)CC2OC1(C)n1c3ccccc3c3c4c(c5c6ccccc6n2c5c31)C(=O)NC4` (stereo not shown) [Compound 5], the remaining activity at 0.5 µM at DAPK1 (DAPK1, inhibitor at 500 nM) was found to be 105%; at IRAK4 (IRAK4, inhibitor at 500 nM), 85.9%; on JAK2 (JAK2, inhibitor at 500 nM), 19.4%; at MAP2K1 (MAP2K1, inhibitor at 500 nM) it was 103%; at MERTK (MERTK, inhibitor at 500 nM), 69.2%; on PRKACA (PRKACA, inhibitor at 500 nM), 32.6%. Also, the remaining activity at 0.5 µM at RET (RET, inhibitor at 500 nM) came out at 21.3%; on SRPK1 (SRPK1, inhibitor at 500 nM) it was 61.1%; at STK4 (STK4, inhibitor at 500 nM), 5.5%.

Take `COC1C(N(C)C(=O)C(N)CCC(=O)OC(C)(C)C)CC2OC1(C)n1c3ccccc3c3c4c(c5c6ccccc6n2c5c31)C(=O)NC4` (stereo not shown) [Compound 6]: the remaining activity at 0.5 µM is 101% on DAPK1 (DAPK1, inhibitor at 500 nM); 63.5% on IRAK4 (IRAK4, inhibitor at 500 nM); 39.6% at JAK2 (JAK2, inhibitor at 500 nM); 101% at MAP2K1 (MAP2K1, inhibitor at 500 nM); 85.2% at MERTK (MERTK, inhibitor at 500 nM); 40.8% on PRKACA (PRKACA, inhibitor at 500 nM). Also, the remaining activity at 0.5 µM amounted to 34.2% on RET (RET, inhibitor at 500 nM); 65.3% at SRPK1 (SRPK1, inhibitor at 500 nM); 6% at STK4 (STK4, inhibitor at 500 nM).

`COC1C(N(C)C(=O)C(N)CCC(=O)O)CC2OC1(C)n1c3ccccc3c3c4c(c5c6ccccc6n2c5c31)C(=O)NC4` (stereo not shown) [Compound 7]: the remaining activity at 0.5 µM at DAPK1 (DAPK1, inhibitor at 500 nM) was 26.2%; on IRAK4 (IRAK4, inhibitor at 500 nM), 46.8%; on JAK2 (JAK2, inhibitor at 500 nM), 1.5%; on MAP2K1 (MAP2K1, inhibitor at 500 nM), 74.1%; on MERTK (MERTK, inhibitor at 500 nM) it was 40%; at PRKACA (PRKACA, inhibitor at 500 nM), 18.6%. Besides, the remaining activity at 0.5 µM at RET (RET, inhibitor at 500 nM) came out at 1.6%; at SRPK1 (SRPK1, inhibitor at 500 nM) it was 38.9%; at STK4 (STK4, inhibitor at 500 nM) it was 1.9%.

For the compound `COC1C(N(C)CCOc2cccc([N+](=O)[O-])c2)CC2OC1(C)n1c3ccccc3c3c4c(c5c6ccccc6n2c5c31)C(=O)NC4` (stereo not shown) [Compound 8], the remaining activity at 0.5 µM on DAPK1 worked out at 89.8%; on IRAK4 it was 27.9%; on JAK2, 5.2%; at MAP2K1 it was 72%; at MERTK, 63.1%; on PRKACA, 26.4%. The remaining activity at 0.5 µM turned out to be 16.2% on RET, 78.3% at SRPK1 and 2.7% at STK4.

Regarding `COC1C(N(C)Cc2ccc(-c3ccccc3)cc2)CC2OC1(C)n1c3ccccc3c3c4c(c5c6ccccc6n2c5c31)C(=O)NC4` (stereo not shown) [Compound 9], the remaining activity at 0.5 µM at DAPK1 (DAPK1, inhibitor at 500 nM) was 116%; at IRAK4 (IRAK4, inhibitor at 500 nM), 26.6%; on JAK2 (JAK2, inhibitor at 500 nM), 4.4%; at MAP2K1 (MAP2K1, inhibitor at 500 nM), 66.1%; on MERTK (MERTK, inhibitor at 500 nM), 52.3%; at PRKACA (PRKACA, inhibitor at 500 nM) it was 24.6%. The remaining activity at 0.5 µM at RET (RET, inhibitor at 500 nM) worked out at 14.8%; on SRPK1 (SRPK1, inhibitor at 500 nM) it was 78.5%; at STK4 (STK4, inhibitor at 500 nM) it was 1.5%.

As for `CN[C@@H]1C[C@H]2O[C@@](C)([C@@H]1OC)n1c3ccccc3c3c4c(c5c6ccccc6n2c5c31)C(=O)NC4` [STU, staurosporine, reference compound], the remaining activity at 0.5 µM at DAPK1 was found to be 1.9%; on IRAK4, 1.6%; at JAK2 (JAK2, inhibitor at 500 nM) it was 0.8%; on MAP2K1 (MAP2K1, inhibitor at 500 nM), 11.5%; on MERTK it was 1.1%; at SRPK1 (SRPK1, inhibitor at 500 nM) it was 17.7%. Besides, the remaining activity at 0.5 µM on STK4 is 5.5%.
